This is an account of results in patent US12384770B2, “Heterocyclic compound” (Takeda Pharmaceutical Company Limited, priority 2019, dated 2025).

One assay addresses T1, HDAC6 enzyme (Homo sapiens, UniProt Q9UBN7).
T1 construct: HDAC6 enzyme prepared by transducing full length HDAC6 gene into Sf-9 insect cells; GST; purchased SignalChem; host or cells: Sf-9 insect cells
T1 sequence (Q9UBN7 1-1215): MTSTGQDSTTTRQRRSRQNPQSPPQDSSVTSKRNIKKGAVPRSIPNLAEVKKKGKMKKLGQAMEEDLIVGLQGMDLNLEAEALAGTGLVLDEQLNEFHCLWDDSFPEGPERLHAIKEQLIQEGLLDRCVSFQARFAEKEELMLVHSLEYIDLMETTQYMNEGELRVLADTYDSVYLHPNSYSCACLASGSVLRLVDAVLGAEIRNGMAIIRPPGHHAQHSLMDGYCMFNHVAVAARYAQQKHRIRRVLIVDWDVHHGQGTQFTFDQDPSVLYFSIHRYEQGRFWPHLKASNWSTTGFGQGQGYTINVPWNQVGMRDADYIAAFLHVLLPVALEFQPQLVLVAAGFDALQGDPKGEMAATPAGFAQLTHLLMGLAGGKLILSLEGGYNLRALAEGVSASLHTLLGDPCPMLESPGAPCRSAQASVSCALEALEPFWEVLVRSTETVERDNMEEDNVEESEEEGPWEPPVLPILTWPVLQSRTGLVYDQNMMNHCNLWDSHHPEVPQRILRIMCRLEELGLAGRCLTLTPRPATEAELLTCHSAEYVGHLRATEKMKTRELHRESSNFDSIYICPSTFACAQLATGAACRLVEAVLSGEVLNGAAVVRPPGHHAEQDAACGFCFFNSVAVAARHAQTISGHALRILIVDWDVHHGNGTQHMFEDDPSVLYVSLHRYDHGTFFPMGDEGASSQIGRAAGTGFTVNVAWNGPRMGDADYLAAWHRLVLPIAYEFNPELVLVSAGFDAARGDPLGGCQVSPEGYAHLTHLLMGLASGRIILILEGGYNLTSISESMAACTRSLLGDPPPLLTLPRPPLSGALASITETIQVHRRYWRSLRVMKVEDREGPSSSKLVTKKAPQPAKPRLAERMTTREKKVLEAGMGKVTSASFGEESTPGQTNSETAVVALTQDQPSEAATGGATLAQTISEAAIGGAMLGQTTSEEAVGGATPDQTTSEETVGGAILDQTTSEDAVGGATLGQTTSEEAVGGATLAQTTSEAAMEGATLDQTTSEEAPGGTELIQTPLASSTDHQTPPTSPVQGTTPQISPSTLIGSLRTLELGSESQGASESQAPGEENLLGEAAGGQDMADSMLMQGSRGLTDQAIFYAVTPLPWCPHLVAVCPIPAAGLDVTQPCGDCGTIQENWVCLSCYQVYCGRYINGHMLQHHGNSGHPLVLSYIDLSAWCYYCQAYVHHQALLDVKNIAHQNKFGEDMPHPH
Put plainly: HDAC6 enzyme inhibitory assay (HDAC-Glo I/II Assay kit). The assay is classed as biochemical. As to conditions: wells without enzyme = 100% inhibition. Put shortly: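 Full-length GST-purified HDAC6 from Sf-9 cells preincubated with compound 60 min at room temperature in Tris-HCl pH 7.5 buffer with MgCl2, KCl, NaCl, glutathione, Tween-20. Substrate-developer reaction 20 min, luminescence read; no-enzyme wells set as 100% inhibition.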
As for `O=C1c2cc(-c3nnc(C(F)F)o3)ccc2CN1[C@H](c1cccc(F)n1)[C@@H](O)c1cccc(F)c1` (single isomer, unassigned) [Example 90, 6-[5-(difluoromethyl)-1,3,4-oxadiazol-2-yl]-2-[(1R*,2S*)-2-(3-fluorophenyl)-1-(6-fluoropyridin-2-yl)-2-hydroxyethyl]-2,3-dihydro-1H-isoindol-1-one], the “HDAC6 inhibitory rate (%) (10 μM)” value was found to be 100%.

Consider `O=C1c2cc(-c3nnc(C(F)F)o3)ccc2CN1[C@H](c1cnccn1)[C@@H](O)c1cccc(Cl)c1` (single isomer, unassigned) [Example 92, 2-[(1R*,2S*)-2-(3-chlorophenyl)-2-hydroxy-1-(pyrazin-2-yl)ethyl]-6-[5-(difluoromethyl)-1,3,4-oxadiazol-2-yl]-2,3-dihydro-1H-isoindol-1-one], for which the “HDAC6 inhibitory rate (%) (10 μM)” value came to 100%.

On to `O=C1c2cc(-c3nnc(C(F)F)o3)ccc2CN1[C@H](c1cnccn1)[C@@H](O)c1ccc(F)cc1` (single isomer, unassigned) [Example 99, 6-[5-(difluoromethyl)-1,3,4-oxadiazol-2-yl]-2-[(1R*,2S*)-2-(4-fluorophenyl)-2-hydroxy-1-(pyrazin-2-yl)ethyl]-2,3-dihydro-1H-isoindol-1-one], for which the “HDAC6 inhibitory rate (%) (10 μM)” value turned out to be 100%.

Consider `O=C1c2cc(-c3nnc(C(F)F)o3)ccc2CN1[C@H](c1cnccn1)[C@@H](O)c1cccc(F)c1` (single isomer, unassigned) [Example 101, 6-[5-(difluoromethyl)-1,3,4-oxadiazol-2-yl]-2-[(1R*,2S*)-2-(3-fluorophenyl)-2-hydroxy-1-(pyrazin-2-yl)ethyl]-2,3-dihydro-1H-isoindol-1-one], for which the “HDAC6 inhibitory rate (%) (10 μM)” value is listed as 100%.

Turning to `O=C1c2cc(-c3nnc(C(F)F)o3)ccc2CN1[C@H](c1ccccn1)[C@@H](O)c1ccccc1` (single isomer, unassigned) [Example 103, 6-[5-(difluoromethyl)-1,3,4-oxadiazol-2-yl]-2-[(1R*,2S*)-2-hydroxy-2-phenyl-1-(pyridin-2-yl)ethyl]-2,3-dihydro-1H-isoindol-1-one], the “HDAC6 inhibitory rate (%) (10 μM)” value is given as 100%.

Take `O=C1c2cc(-c3nnc(C(F)F)o3)ccc2CN1[C@H](c1cccnn1)[C@@H](O)c1ccc(F)c(F)c1` (single isomer, unassigned) [Example 109, 6-[5-(difluoromethyl)-1,3,4-oxadiazol-2-yl]-2-[(1R*,2S*)-2-(3,4-difluorophenyl)-2-hydroxy-1-(pyridazin-3-yl)ethyl]-2,3-dihydro-1H-isoindol-1-one]: the “HDAC6 inhibitory rate (%) (10 μM)” value is 100%.

Staying with this assay, now noted: wells without enzyme = 100% inhibition, 10 µM.
In the case of `O=C1c2cc(-c3nnc(C(F)F)o3)ccc2CN1[C@H](c1ncccn1)[C@@H](O)c1ccc(F)c(F)c1` (single isomer, unassigned) [Example 95, 6-[5-(difluoromethyl)-1,3,4-oxadiazol-2-yl]-2-[(1R*,2S*)-2-(3,4-difluorophenyl)-2-hydroxy-1-(pyrimidin-2-yl)ethyl]-2,3-dihydro-1H-isoindol-1-one], the “HDAC6 inhibitory rate (%) (10 μM)” value came out at 99%.

As for `O=C1c2cc(-c3nnc(C(F)F)o3)ccc2CN1[C@H](c1cnccn1)[C@@H](O)c1ccc(Cl)cc1` (single isomer, unassigned) [Example 97, 2-[(1R*,2S*)-2-(4-chlorophenyl)-2-hydroxy-1-(pyrazin-2-yl)ethyl]-6-[5-(difluoromethyl)-1,3,4-oxadiazol-2-yl]-2,3-dihydro-1H-isoindol-1-one], the “HDAC6 inhibitory rate (%) (10 μM)” value amounted to 99%.

Regarding `O=C1c2cc(-c3nnc(C(F)F)o3)ccc2CN1[C@H](c1ccccn1)[C@@H](O)c1ccc(C(F)(F)F)cn1` (single isomer, unassigned) [Example 105, 6-[5-(difluoromethyl)-1,3,4-oxadiazol-2-yl]-2-{(1R*,2R*)-2-hydroxy-1-(pyridin-2-yl)-2-[5-(trifluoromethyl)pyridin-2-yl]ethyl}-2,3-dihydro-1H-isoindol-1-one], the “HDAC6 inhibitory rate (%) (10 μM)” value came out at 99%.

Still in this assay, the particulars now being: wells without enzyme = 100% inhibition, read-out: HDAC6 inhibitory rate (%) (10 μM).
On to `O=C1c2cc(-c3nnc(C(F)F)o3)ccc2CN1[C@H](c1cnccn1)[C@@H](O)c1cccc(Cl)c1` (single isomer, unassigned) [Example 91, 2-[(1R*,2S*)-2-(3-chlorophenyl)-2-hydroxy-1-(pyrazin-2-yl)ethyl]-6-[5-(difluoromethyl)-1,3,4-oxadiazol-2-yl]-2,3-dihydro-1H-isoindol-1-one], for which the inhibition at 10 µM was found to be 100%.

Regarding `O=C1c2cc(-c3nnc(C(F)F)o3)ccc2CN1[C@H](c1ncccn1)[C@@H](O)c1ccc(F)c(F)c1` (single isomer, unassigned) [Example 94, 6-[5-(difluoromethyl)-1,3,4-oxadiazol-2-yl]-2-[(1R*,2S*)-2-(3,4-difluorophenyl)-2-hydroxy-1-(pyrimidin-2-yl)ethyl]-2,3-dihydro-1H-isoindol-1-one], the inhibition at 10 µM came to 100%.

For `O=C1c2cc(-c3nnc(C(F)F)o3)ccc2CN1[C@H](c1cnccn1)[C@@H](O)c1ccc(Cl)cc1` (single isomer, unassigned) [Example 96, 2-[(1R*,2S*)-2-(4-chlorophenyl)-2-hydroxy-1-(pyrazin-2-yl)ethyl]-6-[5-(difluoromethyl)-1,3,4-oxadiazol-2-yl]-2,3-dihydro-1H-isoindol-1-one], the inhibition at 10 µM was found to be 100%.

Regarding `O=C1c2cc(-c3nnc(C(F)F)o3)ccc2CN1[C@H](c1cnccn1)[C@@H](O)c1ccc(F)cc1` (single isomer, unassigned) [Example 98, 6-[5-(difluoromethyl)-1,3,4-oxadiazol-2-yl]-2-[(1R*,2S*)-2-(4-fluorophenyl)-2-hydroxy-1-(pyrazin-2-yl)ethyl]-2,3-dihydro-1H-isoindol-1-one], the inhibition at 10 µM came to 100%.

Consider `O=C1c2cc(-c3nnc(C(F)F)o3)ccc2CN1[C@H](c1cnccn1)[C@@H](O)c1cccc(F)c1` (single isomer, unassigned) [Example 100, 6-[5-(difluoromethyl)-1,3,4-oxadiazol-2-yl]-2-[(1R*,2S*)-2-(3-fluorophenyl)-2-hydroxy-1-(pyrazin-2-yl)ethyl]-2,3-dihydro-1H-isoindol-1-one], for which the inhibition at 10 µM is 100%.

As to `O=C1c2cc(-c3nnc(C(F)F)o3)ccc2CN1[C@H](c1ccccn1)[C@@H](O)c1ccccc1` (single isomer, unassigned) [Example 102, 6-[5-(difluoromethyl)-1,3,4-oxadiazol-2-yl]-2-[(1R*,2S*)-2-hydroxy-2-phenyl-1-(pyridin-2-yl)ethyl]-2,3-dihydro-1H-isoindol-1-one], the inhibition at 10 µM is 100%.

On to `O=C1c2cc(-c3nnc(C(F)F)o3)ccc2CN1[C@H](c1ccccn1)[C@@H](O)c1ccc(C(F)(F)F)cn1` (single isomer, unassigned) [Example 104, 6-[5-(difluoromethyl)-1,3,4-oxadiazol-2-yl]-2-{(1R*,2R*)-2-hydroxy-1-(pyridin-2-yl)-2-[5-(trifluoromethyl)pyridin-2-yl]ethyl}-2,3-dihydro-1H-isoindol-1-one], for which the inhibition at 10 µM stood at 100%.

As to `O=C1c2cc(-c3nnc(C(F)F)o3)ccc2CN1[C@H](c1cccnn1)[C@@H](O)c1ccc(F)c(F)c1` (single isomer, unassigned) [Example 108, 6-[5-(difluoromethyl)-1,3,4-oxadiazol-2-yl]-2-[(1R*,2S*)-2-(3,4-difluorophenyl)-2-hydroxy-1-(pyridazin-3-yl)ethyl]-2,3-dihydro-1H-isoindol-1-one], the inhibition at 10 µM turned out to be 100%.

On to `O=C1c2cc(-c3nnc(C(F)F)o3)ccc2CN1[C@H](c1cccnn1)[C@@H](O)c1ccc(Cl)cc1` (single isomer, unassigned) [Example 111, 2-[(1R*,2S*)-2-(4-chlorophenyl)-2-hydroxy-1-(pyridazin-3-yl)ethyl]-6-[5-(difluoromethyl)-1,3,4-oxadiazol-2-yl]-2,3-dihydro-1H-isoindol-1-one], for which the inhibition at 10 µM worked out at 99%.
